# “Also recorded” adds a separate entry of the source.
# Columns and labels:
# GFAP-GFP mice [1] = experiment: Striatal IL-1β brain inflammation model: GFP-labeled astrocyte-derived EVs in plasma; format: in vivo, mouse; conditions: 10 mg/kg IP 0.5 h before IL-1β; 2 h post IL-1β
# Method: As we have previously shown[11],[18], striatal injection of IL-1β in mice expressing GFP-GFAP in astroglia triggers a release of GFP-labelled EVs that rapidly enter into plasma, resulting in cytokine upregulation in liver and peripheral immune cell migration into brain[11]. […] There were two groups of mice: the first group was sacrificed 2 h after IL-1β administration by heart puncture, and GFP-labeled circulating EVs were measured with liver cytokines. […] Counting of astrocyte-released EV (GFP+) from blood and liver cytokine analysis was conducted by single injection of DPTIP. Although release of EVs from astrocytes can be initiated immediately after intracranial injection of IL-1β, infiltration of neutrophils in brain parenchyma occurred 12h-24h after the IL-1β injection. […] Western analysis using the isolated exosomal fraction confirmed the presence of CD63 (transmembrane protein), TSG101 (cytosolic protein) and Flotilin-1 (lipid raft associated protein), commonly used EV markers[19],[20]. The GFP signal was an indication that these EVs originated in brain[11] while lack of mitofilin and α-actinin signals indicated the vesicles were not of mitochondrial[21] or cytoskeletal[22] origin respectively (Fig. 6B).
# Compounds were given 0.5 h before IL-1β dosing. One group of mice was sacrificed 2 h after IL-1β administration to determine effects of the various treatments on extracellular vesicles (EVs) releases from brain and liver cytokine analysis. […] (C) Liver cytokine levels under different treatments as measured by qRT-PCR of RNA isolated from fresh frozen liver tissue. Samples were analyzed in triplicate. **p < 0.01 and *p < 0.05 compared to saline control; ^##p < 0.01 and ^#p < 0.05 compared to IL1-β group. (D) Neutrophil levels in brain as measured by immunohistochemistry using coronal brain sections and Ly6b antibody. (E) Quantitation of (D); **p < 0.01 compared to saline control; ^##p < 0.01 compared to IL1-β group. […]
# primary astrocytes = experiment: Inhibition of EV release from primary astrocytes (FBS withdrawal, nanoparticle tracking); format: cell-based, rat; conditions: 2 h treatment, dose range of concentrations
# Method: (§1) Independent laboratories have shown that pharmacological and genetic inhibition of nSMase2 blocks EV secretion from glial cells. […] Two hours after treatment, EVs were isolated from the media and quantified by nanoparticle tracking analysis. […] Cells were fixed and immunofluorescence labeling for GFAP was performed.
# (§2) Media was collected after 2 h incubation and centrifuged at 2700 × g for 15 min at 4 °C. Supernatant was collected and the number of extracellular vesicles (EVs) was quantified using ZetaView Nanoparticle Tracker. The mean concentration of EVs/mL (±SEM) was calculated from 4 replicate experiments. […] Astrocytes grown in complete medium were used as no treatment control. Cells were fixed and stained with anti-GFAP antibody (1:500, Sigma). Fluorescence intensity was measured using Image J. (C) Quantitation of fluorescence in (B). Bar graph represents background corrected mean fluorescence intensity measured from 100 astrocytes per condition. Error bars represent standard error of mean. One-way ANOVA followed by Tukey’s posthoc test was performed.
# Potential inhibition of test compounds on EV release from primary astrocytes was carried out as previously described (Dickens et al., 2017). Briefly, rat primary astrocytes were seeded onto 6-well plates at a density of 20,000 cells/well. Twenty-four hours after seeding, astrocytes were washed with PBS and the medium changed to media without FBS. Absence of FBS mimics a trophic factor withdrawal stimulus causing EVs to be released from astrocytes via an nSMase2-dependent pathway. […] The supernatant was collected and the number of EVs quantified using ZetaView Nanoparticle Tracker (Particle Metrix GmBH, Meerbusch, Germany) and the corresponding ZetaVeiw software (8.03.04.01). Nanosphere size standard 100 nm (Thermo Scientific) was used to calibrate the instrument prior to sample readings. […] For each sample 1 mL of the supernatant was injected into the sample-carrier cell and the particle count measured at 5 positions, with 2 cycles of reading per position. […] Mean concentration of EVs/mL (±SEM) was calculated from 4 replicates.
# GFAP-GFP mice [2] = experiment: Striatal IL-1β brain inflammation model: liver cytokines by qRT-PCR; format: in vivo, mouse; conditions: 10 mg/kg IP; 2 h post IL-1β
# Method: As we have previously shown[11],[18], striatal injection of IL-1β in mice expressing GFP-GFAP in astroglia triggers a release of GFP-labelled EVs that rapidly enter into plasma, resulting in cytokine upregulation in liver and peripheral immune cell migration into brain[11]. […] There were two groups of mice: the first group was sacrificed 2 h after IL-1β administration by heart puncture, and GFP-labeled circulating EVs were measured with liver cytokines. […] Counting of astrocyte-released EV (GFP+) from blood and liver cytokine analysis was conducted by single injection of DPTIP. Although release of EVs from astrocytes can be initiated immediately after intracranial injection of IL-1β, infiltration of neutrophils in brain parenchyma occurred 12h-24h after the IL-1β injection. […]
# Compounds were given 0.5 h before IL-1β dosing. […] (C) Liver cytokine levels under different treatments as measured by qRT-PCR of RNA isolated from fresh frozen liver tissue. Samples were analyzed in triplicate. **p < 0.01 and *p < 0.05 compared to saline control; ^##p < 0.01 and ^#p < 0.05 compared to IL1-β group. (D) Neutrophil levels in brain as measured by immunohistochemistry using coronal brain sections and Ly6b antibody. (E) Quantitation of (D); **p < 0.01 compared to saline control; ^##p < 0.01 compared to IL1-β group. […]
# Rat primary astrocytes = experiment: Astrocyte activation, GFAP immunofluorescence (+/-) serum deprivation; format: cell-based; conditions: 10 μM, 2 h
# Method: as §1, §2
smiles,measurement,setting,value
"COc1cc(-c2nc(-c3cccs3)c(-c3ccccc3)[nH]2)cc(OC)c1O [DPTIP, 2,6-Dimethoxy-4-(5-Phenyl-4-Thiophen-2-yl-1H-Imidazol-2-yl)-Phenol]",reduction of number of astrocyte-derived EVs,GFAP-GFP mice [1],51 ± 13%
same,effect on EV release from primary astrocytes,primary astrocytes,dose-dependently inhibited EV release; also recorded: inhibited EV release from astrocytes in a dose dependent manner
same,effect on upregulation of liver cytokines upon IL-1β treatment,GFAP-GFP mice [2],reduction of cytokine upregulation in liver; also recorded: inhibited
same,effect on GFAP levels without serum starvation,Rat primary astrocytes; no serum starvation,did not change GFAP levels
same,effect on astrocyte activation (GFAP) in response to serum starvation,Rat primary astrocytes; with serum deprivation,prevented astrocyte activation
